Laboratory results taken from article PMC8384680 (Journal of pharmaceutical and biomedical analysis, 2021).
In brackets after ≈: the same amount, converted by molar mass.

Experiments:
[1] = Stability of JQ1 in microdialysate; assay type: physicochemical
[2] = Stability of primary stock solution; assay type: physicochemical; conditions: stored at −80°C for 88-days, R.S.D ≤ 1.16%
BRD4(1) = conditions: cell-free assays, ref [10], cited from earlier work
BRD4(2) = conditions: cell-free assays, ref [10], cited from earlier work

Cc1sc2c(c1C)C(c1ccc(Cl)cc1)=N[C@@H](CC(=O)OC(C)(C)C)c1nnc(C)n1-2 [JQ1]
% Mean deviation ([1]; Bench-top 4C: 24h at 4°C, nominal 1.5 ng/mL): 5.96%
% Mean deviation ([1]; Bench-top RT: 24h at room temperature, nominal 1.5 ng/mL): 3.23%
% Mean deviation ([1]; Bench-top RT: 24h at room temperature, nominal 400 ng/mL): 5.26%
% Mean deviation ([1]; Long-term: 21 days at −80°C, nominal 1.5 ng/mL): 12.83%
% Mean deviation ([1]; Long-term: 21 days at −80°C, nominal 400 ng/mL): 5.62%
% Mean deviation ([1]; Process: 48 h in auto sampler at 4°C, nominal 1.5 ng/mL): 0.46%
% Mean deviation ([1]; Process: 48 h in auto sampler at 4°C, nominal 400 ng/mL): 1.39%
Autosampler (post-extractive) stability (in words) ([1]; extracted quality control samples, microdialysate, autosampler 48 h): stable
Freeze-thaw stability (in words) ([1]; microdialysate, three freeze-thaw cycles): no-stability related issues
Short-term stability (in words) ([1]; spiked microdialysate, 24 h at 4°C and room temperature): stable
Long-term stability (in words) ([1]; spiked microdialysate, −80°C for 21 days): confirmed
% Mean deviation ([1]; three freeze-thaw cycles, nominal 1.5 ng/mL): 11.77%
Stability of primary stock solution (in words) [2]: stable
IC50 BRD4(1) (BRD4(1)): 0.0352 µg/mL (≈ 0.077 µM)
IC50 (BRD4(1); read-out: IC50 BRD4(1)): 77 nM
IC50 BRD4(2) (BRD4(2)): 0.0151 µg/mL (≈ 0.033 µM)
IC50 (BRD4(2); read-out: IC50 BRD4(2)): 33 nM
